Data: patent US20230172204A1 (BASF SE, priority 2020, published 2023)

What was measured:
[1] = test system: Phakopsora pachyrhizi (F129L); assay: Protective control of soybean rust on soybeans (PHAKPA P6); format: in vivo; conditions: for % PHAKPA (F129L) Disease level P6 at 4 ppm: protective P6, 4 ppm; for % PHAKPA (F129L) Disease level P6 at 4 ppm / % PHAKPA (F129L) Disease level P6 at 16 ppm: soybean rust F129L; for % PHAKPA (F129L) Disease level P6 at 16 ppm: protective P6, 16 ppm
[2] = test system: Phakopsora pachyrhizi (F129L); assay: Protective control of soybean rust on soybeans (PHAKPA P2); format: in vivo; conditions: for % PHAKPA (F129L) Disease level P2 at 4 ppm: protective P2, 4 ppm; for % PHAKPA (F129L) Disease level P2 at 4 ppm / % PHAKPA (F129L) Disease level P2 at 16 ppm: soybean rust F129L; for % PHAKPA (F129L) Disease level P2 at 16 ppm: protective P2, 16 ppm
[3] = P6 protective, % diseased leaf area
[4] = P2 protective, % diseased leaf area

| Structure (SMILES) | PHAKPA (F129L) Disease level (%) P6 at 16 ppm [1, 3] | % PHAKPA (F129L) Disease level P6 at 4 ppm [1] | % PHAKPA (F129L) Disease level P6 at 16 ppm [1] | PHAKPA (F129L) Disease level (%) P2 at 16 ppm [2, 4] | % PHAKPA (F129L) Disease level P2 at 4 ppm [2] | % PHAKPA (F129L) Disease level P2 at 16 ppm [2] | PHAKPA (F129L) Disease level (%) P6 at 4 ppm ([1]; P6 protective, 4 ppm, % diseased leaf area) | PHAKPA (F129L) Disease level (%) P2 at 4 ppm ([2]; P2 protective, 4 ppm, % diseased leaf area) |
| --- | --- | --- | --- | --- | --- | --- | --- | --- |
| CO/N=C(/C(=O)OC)c1cccc(C)c1CO/N=C(\C)c1ccccc1 [Ex. 30] | 1% | 77% | 2% | 2% | 53% | 1% | – | – |
| CO/N=C(/C(=O)OC)c1cccc(C)c1CO/N=C(\C)c1ccc(C(F)(F)F)cc1 [Ex. 37] | 0% | 40% | 2% | 0% | 40% | 3% | – | – |
| CNC(=O)/C(=N/OC)c1cccc(Br)c1CO/N=C(\C)c1ccccc1 [compound 396] | – | 4% | 0% | – | 3% | 0% | – | – |
| COC=C(C(=O)OC)c1cccc(C)c1CON=C(C)c1ccc(OC)cc1C(F)(F)F [compound 464] | – | 8% | 0% | – | 1% | 0% | – | – |
| CO/N=C(\C)c1ccc(/C(C)=N/OCc2ccccc2/C(=N\OC)C(=O)OC)cc1 [reference compound] | 60% | – | – | 57% | – | – | – | – |
| CNC(=O)/C(=N/OC)c1cccc(C)c1CO/N=C(\C)c1cc(F)c(F)cc1C(F)(F)F [compound 410] | – | 35% | 1% | – | 9% | 0% | – | – |
| CO/N=C(/C(=O)OC)c1cccc(C(F)F)c1CO/N=C(\C)c1cccc(C(F)(F)F)c1 [Ex. 24] | – | 4% | 28% | – | 36% | 60% | – | – |
| CNC(=O)/C(=N/OC)c1cccc(C)c1CO/N=C(\C)c1cc(-c2ccccc2)cc(C(F)(F)F)c1 [compound 149] | – | 87% | 31% | – | 83% | 45% | – | – |
| CNC(=O)/C(=N/OC)c1ccccc1CO/N=C(\C)c1ccc(-c2ccccc2)cc1 [reference compound] | 28% | – | – | 37% | – | – | – | – |
| CNC(=O)/C(=N/OC)c1cccc(C)c1CO/N=C(\C)c1cccc(C(C)(C)C)c1 [compound 100] | – | 25% | 4% | – | 18% | 0% | – | – |
| CNC(=O)/C(=N/OC)c1cccc(C)c1CO/N=C(\C)c1ccccc1OC(F)(F)F [compound 184] | – | 16% | 1% | – | 42% | 4% | – | – |
| CNC(=O)/C(=N/OC)c1cccc(C)c1CO/N=C(\C)c1cccc(-c2ccccc2)c1 [compound 98] | – | 1% | 0% | – | 3% | 0% | – | – |
| CO/N=C(/C(=O)OC)c1cccc(C)c1CO/N=C(\C)c1ccccc1OC [compound 123] | – | 90% | 78% | – | 100% | 82% | – | – |
| CO/N=C(/C(=O)OC)c1ccccc1CO/N=C(\C)c1cccc(F)c1 [reference compound] | 80% | – | – | 90% | – | – | – | – |
| CNC(=O)/C(=N/OC)c1cccc(C)c1CO/N=C(\C)c1ccc(OC(F)(F)F)cc1C(F)(F)F [compound 363] | – | 25% | 2% | – | 29% | 1% | – | – |
| CNC(=O)/C(=N/OC)c1cccc(C(F)F)c1CO/N=C(\C)c1cccc(C(F)(F)F)c1 [Ex. 23] | – | 20% | 1% | – | 12% | 1% | – | – |
| COC=C(C(=O)OC)c1cccc(C)c1CON=C(C)c1ccccc1C(F)(F)F [Ex. 244] | 2% | 15% | 2% | 0% | 14% | 0% | – | – |
| CO/N=C(/C(=O)OC)c1cccc(C)c1CO/N=C(\C)c1cc(F)ccc1F [compound 118] | – | 32% | 0% | – | 10% | 0% | – | – |
| CO/N=C(/C(=O)OC)c1cccc(C)c1CO/N=C(\C)c1cc(C)ccc1C [compound 203] | – | 93% | 32% | – | 87% | 32% | – | – |
| CNC(=O)/C(=N/OC)c1ccccc1CO/N=C(\C)c1cccc(Cl)c1 [reference compound] | – | – | – | – | – | – | 80% | 43% |
| CNC(=O)/C(=N/OC)c1cccc(C)c1CO/N=C(\C)c1ccccc1CC(C)C [compound 221] | – | 100% | 100% | – | 100% | 63% | – | – |
| CNC(=O)/C(=N/OC)c1ccccc1CO/N=C(\C)c1cccc(C(F)F)c1 [reference compound] | 35% | – | – | 16% | – | – | – | – |
| CO/N=C(/C(=O)OC)c1ccccc1CO/N=C(\C)c1ccccc1 [reference compound] | 43% | – | – | 87% | – | – | – | – |
| C=Cc1cc(/C(C)=N/OCc2c(C)cccc2/C(=N\OC)C(=O)NC)cc(C(F)(F)F)c1 [compound 152] | – | 38% | 7% | – | 24% | 1% | – | – |
| C#Cc1cc(F)c(F)c(/C(C)=N/OCc2c(C)cccc2/C(=N\OC)C(=O)OC)c1 [compound 242] | – | 87% | 20% | – | 87% | 10% | – | – |
| CO/N=C(/C(=O)OC)c1cccc(C)c1CO/N=C(\C)c1ccccc1OC(F)(F)F [compound 236] | – | 97% | 100% | – | 97% | 77% | – | – |
| CNC(=O)/C(=N/OC)c1cccc(C)c1CO/N=C(\C)c1ccccc1C1CC1 [compound 219] | – | 87% | 43% | – | 60% | 8% | – | – |
